Test results: patent US10654838B2, “Aminopyridine compounds useful as inhibitors of protein prenylation” (INSTITUT NATIONAL DE LA SANTE ET DE LA RECHERCHE MEDICALE …, priority 2014, dated 2020)

What was measured:
[1] = system: prelamin A; test: Western immunoblotting of prelamin A; type: cell-based, human; conditions: HGPS MSCs, optimal concentration
Description: Whole-cell lysates of MSC were collected, separated by SDS-PAGE, and transferred onto PVPF membrane by liquid transfer method. Blots were blocked in 10% skim milk (Bio-Rad) in tween 0.1% tris-buffered saline (TTBS) 1× one hour at room temperature. The primary antibodies used were a mouse anti-lamins A/C 1:200 (Millipore, JOL2), a rabbit anti-prelamin A 1/100 (ANTOO45, Diatheva) and a β-actin 1/200000 (Sigma). Membranes were incubated during the night at 4° C. Antigen-antibody binding was detected using horseradish peroxidaseconjugated species-specific secondary antibodies (GE-Healthcare, Little Chalfont, UK) followed by enhanced chemiluminescence Western blotting detection reagents (Perkin-Elmer, Waltham, USA).

[2] = system: HDJ2; test: Western blot analysis of HDJ2 farnesylation; type: cell-based, human
[3] = system: HGPS MSCs; test: Nuclear shape abnormalities (lamin A/C immunostaining); type: cell-based, human; conditions: 48 h, lamin A/C staining
Description: In the 4-steps protocol, cells were fixed in 4% paraformaldehyde (15 minutes, room temperature) before permeabilization and blocking in PBS supplemented with 0.1% triton X-100 and 1% BSA (Sigma-Aldrich, St. Louis, USA). Primary antibodies were incubated one hour at room temperature in blocking buffer. Antibodies included mouse anti-lamins A/C (clone JOL2, Millipore, Billerica, USA), rabbit anti-prelamin A (ANTOO45, Diatheva) and anti-Ki67 (clone Ki-S5, MAB4190, Millipore, Billerica, USA). Cells were stained with the species-specific fluorophore-conjugated secondary antibody (Invitrogen) (one hour, room temperature) and nuclei were visualized with Hoechst 33342.

[4] = system: HGPS MSCs; test: Live cell imaging (cell density); type: cell-based, human; conditions: 7 days
Description: HGPS MSCs were seeded at 2500 cells per well in 96-well plates and cultivated during 7 days in presence of the drugs. Cell density was monitored using an IncuCyte ZOOM microscope (Essen Bioscience). Each value corresponds to the mean of cell densities of four pictures taken in three independent wells.

[5] = molecular target: T1, FT (Homo sapiens, UniProt P49354+P49356); test: FT activity assay (Farnesyltransferase [3H] SPA); type: biochemical; conditions: concentration inducing 50% of the maximum inhibiting effect of the compound
T1 construct: Reactions were started by adding 40 μL of treated or untreated cell lysate; endogenous in cells; host or cells: HGPS MSCs (cell lysate)
Description: (§1) Cell pellet of HGPS MSCs were resuspended in 25 mM Tris-HCl pH 7.4, 1 mM DTT, 1 mM MgCl2, 1 EDTA, 1 mM PMSF and centrifuged at 10,000×g for 10 min at 4° C. Protein content was determined using Lowry's method. Aliquots of cell lysate containing 100 μg of total proteins were incubated with tested substances at 37° C. for 30 min.
FT activity was determined by Famesyltransferase [3H] SPA enzyme assay (Amersham Life Science, Buckinghamshire, England). Briefly, FT activity was assayed in 20 μl of assay buffer containing 50 mmol/L Hepes, 30 mmol/L MgCl2, 20 mmol/L KCl and 5 mmol/L dithiothreitol, 20 μl of [3H]-FPP (12 pmol) and 20 μl of biotin lamin B. Reactions were started by adding 40 μL of treated or untreated cell lysate and incubated for 1 hour at 37° C. Reactions were stopped by the addition of 150 μL of stop reagent containing SPA bead and counted in a scintillation counter. FT activity was expressed as pmoles of incorporated [3H]-FPP into biotin lamin-B peptide per minute per milligram of total proteins (pmol/min/mg prot). Parallel samples were assayed to evaluate the total and the nonspecific radioactivity. In all experiments enzyme assays were carried out in triplicate.

[6] = molecular target: T2, HMGCR (Homo sapiens, UniProt P04035); test: HMGCR colorimetric activity assay; type: biochemical
T2 construct: oxidation of NADPH by the catalytic subunit of HMGCR in the presence of the substrate HMG CoA; purchased Sigma-Aldrich
T2 sequence (P04035 340-888 limits assumed): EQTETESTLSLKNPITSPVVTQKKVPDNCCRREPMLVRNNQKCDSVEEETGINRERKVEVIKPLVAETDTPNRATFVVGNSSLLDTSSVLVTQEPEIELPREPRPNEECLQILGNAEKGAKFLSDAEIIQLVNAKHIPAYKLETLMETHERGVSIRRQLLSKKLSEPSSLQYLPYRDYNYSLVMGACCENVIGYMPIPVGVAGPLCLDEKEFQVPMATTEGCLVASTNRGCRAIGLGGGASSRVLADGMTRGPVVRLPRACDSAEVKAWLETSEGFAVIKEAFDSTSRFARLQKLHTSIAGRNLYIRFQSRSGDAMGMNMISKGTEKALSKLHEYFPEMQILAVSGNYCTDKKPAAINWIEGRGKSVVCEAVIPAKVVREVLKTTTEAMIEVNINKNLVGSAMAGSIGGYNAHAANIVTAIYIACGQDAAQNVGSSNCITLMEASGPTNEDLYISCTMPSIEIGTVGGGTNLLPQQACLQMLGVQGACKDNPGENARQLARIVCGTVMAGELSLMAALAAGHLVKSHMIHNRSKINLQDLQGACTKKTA
Description: HMGCR activity was measured using GCoA Reductase Assay Kit (Sigma-Aldrich) according to the manufacturer's protocol. The assay is based on the spectrophotometric measurement of the decrease in absorbance at 340 nm, which represents the oxidation of NADPH by the catalytic subunit of HMGCR in the presence of the substrate HMG CoA.

[7] = molecular target: T3, FPPS (Homo sapiens, UniProt P14324); test: FPPS activity assay; type: biochemical; design: endogenous in cells; host or cells: HGPS MSCs (cell lysate); conditions: concentration inducing 50% of the maximum inhibiting effect of the compound
T3 sequence (P14324 1-419): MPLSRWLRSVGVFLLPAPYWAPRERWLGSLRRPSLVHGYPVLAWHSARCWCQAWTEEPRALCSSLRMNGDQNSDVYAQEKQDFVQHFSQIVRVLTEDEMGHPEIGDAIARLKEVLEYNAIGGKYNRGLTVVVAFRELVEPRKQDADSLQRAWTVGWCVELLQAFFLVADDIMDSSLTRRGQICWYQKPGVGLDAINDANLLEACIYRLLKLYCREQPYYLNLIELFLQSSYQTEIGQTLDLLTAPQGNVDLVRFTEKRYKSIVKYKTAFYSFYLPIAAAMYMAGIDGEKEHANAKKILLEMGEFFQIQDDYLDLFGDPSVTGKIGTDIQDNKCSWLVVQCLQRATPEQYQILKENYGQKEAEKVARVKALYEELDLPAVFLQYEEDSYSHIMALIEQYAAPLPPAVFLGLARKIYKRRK
Description: as §1
FPPS assay was carried out with some modifications of the procedure of Krisans et al. (Krisans et al., 1994, The Journal of biological chemistry VOL. 269: 14165-14169) and described by Gupta et al. (Gupta et al., 1999, Eur J Med Chem, VOL. 43: 2751-2767). Briefly, FPPS was assayed in 150 μL containing 25 mmol/L Hepes, pH=7, 2 mmol/L MgCl2, 1 mmol/L dithiothreitol, 5 mmol/L KF, 1% A noctyl-β-glucopyranoside, 3.3 μmol/L [4-14C] IPP (18 Ci/mmol), 3 μmol/L unlabeled IPP and 20 μmol/L geranyl diphosphate. Reactions were started by adding 40 μL of treated or untreated cell lysate and incubated for 45 min at 37° C. Reactions were stopped by the addition of 150 μL 2.5 mol/L HCl in 80% ethanol containing 100 μg/mL farnesol as a carrier. The samples were hydrolyzed for 30 min at 37° C. to convert the FPP to farnesol and neutralized by the addition of 150 μL of 10% NaOH. The reaction product (farnesol) was extracted into 1 mL of N-hexane and an aliquot (200 μL) of the organic phase was used for radioactivity counting. Parallel samples were assayed to evaluate the total and the nonspecific radioactivity. In all experiments, enzyme assays were carried out in triplicate.

[8] = system: prelamin A farnesylation (nuclear localization of prelamin A) in HGPS MSCs; test: Prelamin A localization cell-based assay; design: species or system human; conditions: for EC50: Homo sapiens, 48 h treatment, dose-response
Description: 2000 HGPS MSCs were plated in black 384-well clear-bottom plates (Corning). After 48 h of drug treatment, cells were fixed in 4% paraformaldehyde (15 minutes, room temperature). Permeabilization, blocking and primary hybridization steps were done concomitantly in a PBS solution supplemented with 0.1% triton X-100 and 1% BSA (Sigma-Aldrich, St. Louis, USA) and rabbit anti-prelamin A (ANTOO45, Diatheva) overnight at 4° C. Cells were stained with the species-specific fluorophore-conjugated secondary anti-rabbit antibody (Invitrogen) (one hour, room temperature) and nuclei were visualized with Hoechst 33342. These steps were automated using a washing/staining station (ELx405 Biotek, RapidStak Thermo, Multidrop Labsystems). Prelamin A localization was analyzed with an ayScan VTI HCS Reader (Cellomics). The first channel was used for nucleus identification (Hoechst 33342 staining) and the second one to identify prelamin A staining. Pictures were acquired with a 5× objective in high-resolution camera mode and were analyzed using the Spot Detector bioapplication. The robustness of the assay was evaluated using the Z′ factor calculated as ollows Z′=1−[3(SDP+SDN)/(MP−MN)] where MP and MN correspond to the means of the positive (tipifarnib 1 μM) and negative (DMSO 0.1%) controls, respectively, and SDP and SDN correspond to their standard deviation.
The primary screen was conducted on Biocell 1800 (Agilent). […]
Data analysis of the screening was performed using a customized Hiscreen application (Discngine, Paris, France) connected to Spotfire software (Tibco Co). Screening robustness was evaluated by calculating for each plate the Z'factor on the percentage of prelaminA nuclei parameter. […]
This study was performed on MSCs derived from HGPS iPS cells, differentiated as previously described (Blondel et al., 2014, Stem Cells Transl Med, VOL. 3: 510-519) and used after ten passages of amplification. […] A high throughput immunostaining assay was developed to robustly quantify prelamin A expression and localization in 384-well plates. […]

SMILES | unfarnesylated form of HDJ2 [2] | rescue of nuclear shape abnormalities [3] | EC50 [8] [nM] | also measured
CCCc1c(C(=O)N2CCN(c3cc(N(C)c4cccc(C)c4)ncn3)CC2)cnn1-c1ccccc1 [Di-AP2, {4-[6-(Methyl-m-tolyl-amino)-pyrimidin-4-yl]-piperazin-1-yl}-(1-phenyl-5-propyl-1H-pyrazol-4-yl)-methanone] | increase of the unfarnesylated form of the protein | restored significantly |  | prelamin A level (Western blot) [1]: increased
N#CC(c1ccccn1)c1ccnc(N2CCC(O)(Cc3ccccc3)CC2)n1 (stereo not drawn) [Mono-AP3, [2-(4-Benzyl-4-hydroxy-piperidin-1-yl)-pyrimidin-4-yl]-pyridin-2-yl-acetonitrile] | increase of the unfarnesylated form of the protein | restoring HGPS MSCs nuclear shape defects at levels not significantly different from the FTI tipifarnib |  | cytostatic effect in long term live imaging cultures [4]: less cytostatic than the FTI tipifarnib; IC50 [5]: 0.35 µM; IC50 (μM) HMGCR [6]: No inhibition; IC50 [7]: 5.54 µM
Cc1cccc(CN2CCN(c3nccc(C(C#N)c4ccccn4)n3)CC2)c1 (stereo not drawn) [Mono-AP21, {2-[4-(3-Methyl-benzyl)-piperazin-1-yl]-pyrimidin-4-yl}-pyridin-2-yl-acetonitrile] |  |  | 1500 | 
CCOC(=O)CN1CCN(c2nccc(C(C#N)c3ccccn3)n2)CC1 (stereo not drawn) [Mono-AP25, {4-[4-(Cyano-pyridin-2-yl-methyl)-pyrimidin-2-yl]-piperazin-1-yl}-acetic acid ethyl ester] |  |  |  | efficiency on prelamin A farnesylation (in words) ([8]; dose response): decrease in efficiency
N#CC(c1ccccn1)c1ccnc(N2CCN(Cc3cccc(F)c3)CC2)n1 (stereo not drawn) [Mono-AP28, {2-[4-(3-Fluoro-benzyl)-piperazin-1-yl]-pyrimidin-4-yl}-pyridin-2-yl-acetonitrile] |  |  | 2000 | 
